The values that follow come from patent US12193465B2, “Materials and methods for extending shelf-life of foods” (JP Laboratories, Inc., priority 2021, dated 2025).

Structures can show the parent of a compound that is named as a salt. Where two headings read alike, the source gives them in different places.

A short description of data set [1]: General shelf-life extension of foods (spoilage criteria of Example 9). Particulars: for Effectiveness for controlling one or more spoilage criteria: variety of foods. The method, then: (§1) All studies were conducted at a room temperature of about 25° C. To determine the effectiveness of a shelf-life extender, a control sample which was untreated with any shelf-life extenders, was tested identical to the test samples. […] All studies in those Examples of Tables 1-6 were conducted in closed plastic or glass containers. Containers, such as plastic containers, without or with lids having holes can be used if it is advantageous to let excess moisture escape or to prevent condensation of moisture released by some produce.
(§2) Food exposed to preservatives or by a sachet was placed in typically polystyrene or acrylic containers depending upon the size and number of food items. Glass jars and bottles were also used. The containers were snap-closed or with a lid. The containers were purchased mainly from Amazon or Webstaurant.com store. When needed, plastic containers with holes or without lids were used.
(§3) For controlled exposure and a constant supply of a preservative to foods, sachets containing one or more drops of preservatives were used. Sachets were made by placing an appropriate amount of a preservative in a plastic bag containing a piece of paper and heat sealing the bag. The sachet bag materials used were Tyvek® for solid preservative, polyethylene, polyester and high barrier multilayer films were used for liquid preservatives. These bags were sealed with a heat sealer. The sachet was typically applied on one side of the container containing food.
(§4) A piece of paper napkin was taped inside a 100 microns thick polyethylene or polyester Ziploc bag. The size of the bag varied from ˜20 cm×30 cm to ˜60 cm×90 cm depended on the sample with sandwich bags up to gallon bags being exemplary. The paper napkin was wetted with 0.1-0.5 ml of a preservative or a mixture of preservatives. A tray of aluminum, stainless steel or glass containing the foods was placed inside the plastic (polyethylene, polyester and multilayer-laminated) bag and almost closed by locking the Ziploc. Air was blown with an air blower from the unclosed end until the bag was fully blown and then quickly closed tightly by locking the remaining Ziploc. If a preservative was a sublimable solid, it was placed in a petri dish and then placed inside the bag in the tray before blowing air. The exposure time was varied from five minutes to a day depending upon the food. […] The assembly was shaken periodically. After the predetermined time, the tray containing produce was removed from the bag, allowed to de-gas for 10-30 minutes in air and the produce was then placed in an appropriately sized container. Glass and stainless steel containers with lids were also often used.
(§5) A solution of one or more preservatives was prepared in a large (e.g., 2-10 liter) glass beaker or a jar. A sack containing the food was prepared by placing the food in a plastic mesh bag. The sack was placed in the solution of the preservative. A smaller glass beaker containing proper amount of water was place over the package to keep the sack soaked in the solution of the preservative during the treatment. The solution was stirred either with a plastic spatula or with a magnet over a magnetic stirrer. After treatment, the mesh sack was removed, the produce was washed in a tray with running water, strained and air dried at 30° C. in an air blowing oven for about 5-10 minutes, while shaking the tray or turning the food periodically followed by placing the sample in an appropriate container.
(§6) The food was placed in mesh trays and sprayed with an aqueous solution (1-10%) of a preservative while shaking the tray or turning the food. The solution was allowed to drain from the tray and the food was air dried in an air blowing oven at 30° C. for about 5-10 minutes, while shaking the tray or turning food periodically followed by placing the sample in an appropriate container.

Data set [2] deals with green tomato, papaya, banana, mango, peppers, tindora. The data set is described as follows: Ripening of fruits and vegetables (delayed or expedited). Particulars: for Spoilage Time - Sample (Expedited ripening): control 14+ days; for Ripening, green-to-yellow (or red) color-change: pre-dipping into 10% solution. The method, then: as §1, §3, §4, §5
The untreated (control sample) and treated food were placed in proper sized plastic containers and the containers were tightly closed.
The following major criteria were used for determining spoilage of foods: growth of fungus, color change, unpleasant odor, wilting, firmness or shriveling, change of state (liquid to solid or vice versa), and sprouting or germination Example 10: Sources of food.

The nature of data set [3]: Color change / browning / yellowing of foods (keeping produce green longer). Particulars: for Spoilage Time - Sample (Color change): 2% in water sprayed. The procedure: as §1, §2, §3, §4, §5, §6
In data set [4] the test system is parval, methi, coriander, radish, guar. Briefly: Shriveling / wilting / dehydration / becoming wet of produce. Conditions: for Spoilage Time - Sample (Dehydration): 0.08 hr soaking in 22% solution in water. The text has this:
(§7) Most of the foods changed color or texture.
(§8) The assembly was shaken periodically.

Data set [5] has as its system grains, legumes, potatoes, garlic. Briefly: Germination / sprouting of grains, legumes and tubers. Conditions: for Spoilage Time - Sample: Example 111, Germination, Mixed Legumes, 64 hrs P-E, control 3 days.
Text: (§9) These bags were sealed with a heat sealer.
as §8

Another data set has as its system fungus. Briefly: Fungus growth on treated foods stored in closed containers at room temperature.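 For Effectiveness on ginger: compared with untreated control ginger in closed containers.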 Conditions: for Spoilage Time - Sample: Fungus, Sachet, 100% relative humidity.
Text: as §7
Glass jars and bottles were also used. The containers were snap-closed or with a lid.
as §9, §8

Data set [6] can be described thus: Color loss of meat and fish. Particulars: for Spoilage Time - Sample (Color loss): Sachet, control 2 days.
Text: as §7, §9

The test system of the next data set is avocado. Briefly: Softening / rotten inside (spoiled flesh) of avocado.
Text: as §7, §8

Data set [7] can be described thus: Curdling / cream / solidification of milk.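 Note: compared with untreated control milk in closed containers.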
Text: as §7

For the compound `COC(=O)OC` [dimethyl carbonate, Dimethyl carbonate], the “Effectiveness for controlling one or more spoilage criteria” value in data set [1] was “effective to a greater or lesser extent”. The compound further registered an Expedited ripening in data set [2] (Example 155, mango, control around 14 days) of 8 days. Further, in data set [2] (Mango, Sachet), the “Spoilage Time - Sample (Expedited ripening)” value was determined as 8 days.

Consider `CCOCCO` [2-ethoxyethanol, 2-Ethoxyethanol], for which, in [2] (Mango, 2 hrs P-E, control 16 days), the “Spoilage Time - Sample (Ripening)” value is listed as 23 days.

For `C[N+](C)(C)CCO.[Cl-]` [choline chloride, Choline chloride], in [3] (Broccoli, 1 hr soaking in 5% solution in water, control 1 day), the “Spoilage Time - Sample (Color loss)” value worked out at 8 days. For the same compound, the Remaining green result in [3] (Example 149, Bok choy, pre-dipped into 22% solution) is “remained green longer”. For the same compound, the Color change entry in [3] (Example 150, parsley, pre-dipping/rinsing in 22% solution) is given as “delayed the color change”. Also, in data set [3] (Example 152, broccoli, dipped into 5% solution), the “Color change from green-to-yellow” value is “significantly delayed”. The “Spoilage Time - Sample (Dehydration)” value in data set [4] (Bok Choy, control 7 days) turned out to be 11 days; in data set [4] (Parsley, control 7 days), 11 days. For the same compound, the Sprouting result in [5] (Example 154, potatoes, pre-dipping into 10% solution) is recorded as “either prevented or significantly delayed”. In data set [5] (Fingerling Potatoes, 2 hrs soaking in 10% solution in water, control 10 days), the “Spoilage Time - Sample (Sprouting)” value was 16 days. The “Ripening, green-to-yellow (or red) color-change” value is reported as “delayed” in [2] (Example 151, green chili peppers) and “delayed” in [2] (Example 153, Jalapeno peppers). Moreover, the “Spoilage Time - Sample (Ripening)” value in data set [2] (Jalapeño Peppers, 1 hr soaking in 10% solution in water, control 3 days) is 8 days; in data set [2] (Peppers, 2 hrs soaking in 10% solution in water, control 6 days) it was 13 days.

For the compound `N.NC(=O)O` [ammonium carbamate, Ammonium carbamate], the “Spoilage Time - Sample (Fungus)” value with fungus is reported as 80+ days. The “Shelf-life of flowery vegetables” value in [1] is recorded as “extended shelf-life”. Also, in [6] (Example 143, ground beef, sachet, 3rd day, control within 2 days), the “Loss of pinkish fleshy color” value is “lost less fleshy pinkish color”.

With `O=C(O)C(O)c1ccccc1` (stereo not drawn) [mandelic acid, Mandelic Acid], the Spoilage of coriander result in data set [3] (Example 161, soaking in 1% solution) is “significantly delayed”. Besides, the “Spoilage Time - Sample (Wet)” value in [4] (Coriander, 0.5 hr soaking in 1% solution in water, control 7 days) was 7+ days.

With `NCCN` [ED, Ethylenediamine], the “Spoilage Time - Sample” value in data set [3] (Example 131, Color change, Parsley, 0.25 hr P-E, control 7 days) was 22+ days; in data set [3] (Example 131, Color change, Parsley, 0.25 hr P-E, control 7 days, listed as ethylenediamine) it was “significantly delayed”; in data set [2] (Example 132, Ripening, Banana, 0.25 hr P-E, control 18 days), 21+ days; in data set [2] (Example 132, Ripening, Banana, 0.25 hr P-E, control 18 days, listed as ethylenediamine), above 21 days. Also, the “Effectiveness for controlling one or more spoilage criteria” value in data set [1] is “effective to a greater or lesser extent”.

As to Ammonium carbonate, the “Shelf-life of flowery vegetables” value in data set [1] was “extended shelf-life”. Moreover, in data set [1] (tofu), the “Effectiveness as shelf-life extender” value was “effective”. Further, the “Spoilage Time - Sample (Color loss)” value in data set [6] (Ground Beef), in [6] (Ground Chicken) and in [6] (Tilapia fish fillet) was 2+ days in each case. In [6] (meat and fish), the “Improvements with meat and fish” value is recorded as “demonstrated improvements”.

`O=C1C=CCCC1` [2CY, 2-Cyclohexen-1-one]: in the data set on fungus (ginger, pre-exposure and sachet method), the Effectiveness on ginger entry was “found effective”. Also, the “Spoilage Time - Sample” value in [3] (Example 114, Yellowing, Coriander, 1 hr P-E, control 10 days) is reported as 10+ days; in data set [3] (Example 114, Yellowing, Coriander, 1 hr P-E, control 10 days, listed as 2-cyclohexen-1-one), “significantly delayed”; in data set [5], 3 days; in data set [5] (listed as 2-cyclohexen-1-one) it was “delayed or prevented”; in the data set on avocado (Example 113, Softening, Avocado, 2 hrs P-E, control 2 days), 2 days; in data set [2] (Example 112, Ripeness, Papaya, 2 hrs P-E, control 7 days), 11 days. In data set [2] (Example 112, Ripeness, Papaya, 2 hrs P-E, control 7 days, listed as 2-cyclohexen-1-one), the “Spoilage Time - Sample” value is given as “at least 11 days”. Moreover, in data set [1], the “Shelf-life of flowery vegetables” value is reported as “extended shelf-life”. In data set [1] (peanuts), the “Shelf-life of shelled and unshelled peanuts” value is reported as “extended”. The “Effectiveness for controlling one or more spoilage criteria” value in data set [1] is reported as “effective to a greater or lesser extent”. Moreover, the “Spoiling of the flesh with development of fungus” value in the data set with avocado (avocados, Examples 77, 78, 107, 108, 113 & 171) is “significantly delayed”. Moreover, the “Effectiveness in delaying the ripening of tomatoes” value in data set [2] (unsaturated versus saturated homolog) was “more effective”.

`CCCCOCCO` [2-butoxyethanol, 2-Butoxyethanol] displayed a Fungus growth in the data set with fungus (312 h) above 29 days. Besides, in the data set with fungus (Red tomato, 2 hrs P-E, control 13 days), the “Spoilage Time - Sample (Fungus)” value amounted to 29 days. Also, the “Effectiveness for controlling one or more spoilage criteria” value in data set [1] was “effective to a greater or lesser extent”. For the same compound, in data set [2] (Mango, Sachet), the “Spoilage Time - Sample (Expedited ripening)” value amounted to 8 days.

Take (−)-Menthone: the “Shelf-life of flowery vegetables” value in data set [1] is “extended shelf-life”. Besides, the Dehydration/wilting entry in data set [4] (Example 162, radish, vapor, control 5 days) was “less dehydration/wilting”. Also, the “Spoilage Time - Sample (Shriveling)” value in data set [4] (Radish, 2 hrs P-E, control 5 days) is recorded as 5 days.

For `S=C=Nc1ccccc1` [PI, phenyl isothiocyanate], the “Spoilage Time - Sample” value was found to be 48 days with fungus (Example 87, White pearl onions, control 8 days) and 48 days in the data set with fungus (Example 88, Yellow pearl onions, control 24 days). For the same compound, the “Effectiveness in extending freshness of cold press fresh juices” value in the data set with fungus (cold press fresh juices) is given as “effective”. Further, the “Effectiveness at extending the shelf-life of potatoes” value in data set [5] (potatoes) is listed as “effective”. Also, in data set [7] (raw cow milk and raw goat milk), the Curdling result was “delayed curdling”.

`COC(=O)/C=C\C(=O)OC` [dimethyl maleate, Dimethyl maleate] yielded a Ripening in [2] (Example 156, mangoes, sachet, control 16 days) of 23 days. Besides, in [2] (Mango, Sachet, control 16 days), the “Spoilage Time - Sample (Ripening)” value stood at 23 days.

As to `OB(O)c1ccccc1` [phenylboronic acid, Phenylboronic acid], the “Spoilage Time - Sample (Fungus)” value is listed as 10+ days in the data set on fungus (Blueberry, 2% in water sprayed, control 6 days) and 10+ days with fungus (Strawberry, 2% in water sprayed, control 6 days). Further, in the data set on fungus (strawberries, raspberries, blackberries and lychee), the Fungus growth entry is listed as “either prevented or significantly delayed”. Moreover, the “Spoilage Time - Sample (Color change)” value in data set [3] (Broccoli, control 4 days) is 28 days; in data set [3] (Lime, control 6 days), 6+ days; in data set [3] (Methi, control 4 days), 28 days. In addition, the “Color change from green to brown on the skin” value in data set [3] (Example 137, limes, sprayed with 2% solution in water, room temperature, control 6 days) was above 10 days. Moreover, in [5] (Example 140, grains, mainly unhusked rice and soft white wheat, 2% spray, control 2 days), the Germination/sprouting is recorded as above 10 days. For the same compound, the “Spoilage Time - Sample (Germination)” value in data set [5] (Grains (mixed legumes and soft white wheat), 2% in water sprayed, control 2 days) is given as 7+ days. In addition, the Curdling of milk entry in data set [7] (pasteurized whole and fat-free milk) is “delayed curdling”.
